Values after ≈ are worked out from the molar mass of the structure shown. Where two headings read alike, the source gives them in different places.

What all share (format): physicochemical
The nature of data set [1]: Conversion of Form II to Form I in different solvents. An excerpt:
The Form II was converted to Form I in acetonitrile, ethanol and IPA respectively as described in Table 13.

Data set [2] is described as follows: Solubility measurement of Form I in solvent systems (HPLC). Conditions: for solubility at 24 h: organic solvent or mixture, thermodynamic from solid, stirred 24 h, HPLC; for solubility (in words): 25° C.
Test in data set [3]: as above
Conditions: organic solvent or mixture, thermodynamic from solid. How it is done: Form I waw found to be completely soluble (>50 mg/mL) in many solvents including DMF (50° C.), DCM, chloroform, DMSO, and DCM/MeOH (9/1) at 25° C. and 50° C.

With `CCN1C(=O)N(c2c(F)c(OC)cc(OC)c2F)Cc2cnc3[nH]c(CN4CCOCC4)cc3c21` [Form II], the “Conversion result (solid form)” value in data set [1] (18 mg Form II in EtOH (0.7 mL)), in data set [1] (18 mg Form II in IPA (0.7 mL)) and in data set [1] (18 mg Form II in MeCN (0.7 mL)) was “Form I” throughout. The solubility at 24 h in data set [2] (25 °C, solvent Dichloromethane, read-out: Solubility at 25° C.) is over 50000 µg/mL.

`CCN1C(=O)N(c2c(F)c(OC)cc(OC)c2F)Cc2cnc3[nH]c(CN4CCOCC4)cc3c21` [Form XI]: in data set [3] (25 °C, solvent Ethyl formate, stirred 24 h, HPLC, read-out: Solubility at 25° C.), the solubility at 24 h came out at 4160 µg/mL (≈ 8.53 mM).

For the compound `CCN1C(=O)N(c2c(F)c(OC)cc(OC)c2F)Cc2cnc3[nH]c(CN4CCOCC4)cc3c21` [Form XIII], the solubility at 24 h in data set [2] (50 °C, solvent THF, read-out: Solubility at 50° C.) was 10000 µg/mL (≈ 20.6 mM).

`CCN1C(=O)N(c2c(F)c(OC)cc(OC)c2F)Cc2cnc3[nH]c(CN4CCOCC4)cc3c21` [Form VIII]: the solubility at 24 h in data set [3] (25 °C, solvent Acetone, stirred 24 h, HPLC, read-out: Solubility at 25° C.) turned out to be 2680 µg/mL (≈ 5.5 mM).

Turning to `CCN1C(=O)N(c2c(F)c(OC)cc(OC)c2F)Cc2cnc3[nH]c(CN4CCOCC4)cc3c21` [Form III], the solubility at 24 h in data set [2] (25 °C, solvent 1,4-Dioxane, read-out: Solubility at 25° C.) worked out at 2230 µg/mL (≈ 4.57 mM); in data set [3] (50 °C, solvent 1,4-Dioxane, stirred 24 h, HPLC, read-out: Solubility at 50° C.) it was 5690 µg/mL (≈ 11.7 mM).

As for `CCN1C(=O)N(c2c(F)c(OC)cc(OC)c2F)Cc2cnc3[nH]c(CN4CCOCC4)cc3c21` [Form VI], in data set [2] (25 °C, solvent Methanol, read-out: Solubility at 25° C.), the solubility at 24 h is 640 µg/mL (≈ 1.31 mM).

On to `CCN1C(=O)N(c2c(F)c(OC)cc(OC)c2F)Cc2cnc3[nH]c(CN4CCOCC4)cc3c21` [Form IX], for which, in data set [3] (25 °C, solvent MTBE, stirred 24 h, HPLC, read-out: Solubility at 25° C.), the solubility at 24 h was 50 µg/mL (≈ 0.103 mM).

On to `CCN1C(=O)N(c2c(F)c(OC)cc(OC)c2F)Cc2cnc3[nH]c(CN4CCOCC4)cc3c21` [Form VII], for which the solubility at 24 h in data set [3] (25 °C, solvent MIBK, stirred 24 h, HPLC, read-out: Solubility at 25° C.) is 430 µg/mL (≈ 0.882 mM).

Turning to `CCN1C(=O)N(c2c(F)c(OC)cc(OC)c2F)Cc2cnc3[nH]c(CN4CCOCC4)cc3c21` [Form X], the solubility at 24 h in data set [2] (25 °C, solvent EtOAc, read-out: Solubility at 25° C.) amounted to 700 µg/mL (≈ 1.44 mM).

Regarding `CCN1C(=O)N(c2c(F)c(OC)cc(OC)c2F)Cc2cnc3[nH]c(CN4CCOCC4)cc3c21` [Form I], the solubility at 24 h is 15300 µg/mL (≈ 31.3 mM) in data set [2] (25 °C, solvent 2-Methoxyethanol, read-out: Solubility at 25° C.); over 50000 µg/mL in data set [2] (25 °C, solvent Chloroform, read-out: Solubility at 25° C.); 42000 µg/mL (≈ 86.1 mM) in data set [2] (25 °C, solvent DMF, read-out: Solubility at 25° C.); over 50000 µg/mL in data set [2] (25 °C, solvent DMSO, read-out: Solubility at 25° C.); 970 µg/mL (≈ 1.99 mM) in data set [2] (25 °C, solvent EtOH, read-out: Solubility at 25° C.); 5350 µg/mL (≈ 11 mM) in data set [2] (25 °C, solvent IPA/water (4/1), read-out: Solubility at 25° C.). Also, the solubility at 24 h in data set [2] (25 °C, solvent IPA, read-out: Solubility at 25° C.) amounted to 560 µg/mL (≈ 1.15 mM); in data set [2] (25 °C, solvent Isobutyl acetate, read-out: Solubility at 25° C.) it was 460 µg/mL (≈ 0.944 mM); in data set [2] (25 °C, solvent MEK, read-out: Solubility at 25° C.), 1200 µg/mL (≈ 2.46 mM); in data set [2] (25 °C, solvent MeCN, read-out: Solubility at 25° C.) it was 5390 µg/mL (≈ 11.1 mM); in data set [2] (25 °C, solvent THF, read-out: Solubility at 25° C.), 4110 µg/mL (≈ 8.43 mM); in data set [2] (25 °C, solvent n-BuOH, read-out: Solubility at 25° C.), 820 µg/mL (≈ 1.68 mM). The solubility at 24 h in data set [2] (50 °C, solvent 2-Methoxyethanol, read-out: Solubility at 50° C.) was 20500 µg/mL (≈ 42 mM); in data set [2] (50 °C, solvent Acetone, read-out: Solubility at 50° C.) it was 6670 µg/mL (≈ 13.7 mM); in data set [2] (50 °C, solvent DCM/MeOH (9/1), read-out: Solubility at 50° C.) it was over 50000 µg/mL; in data set [2] (50 °C, solvent DMF, read-out: Solubility at 50° C.) it was over 50000 µg/mL; in data set [2] (50 °C, solvent DMSO, read-out: Solubility at 50° C.), over 50000 µg/mL; in data set [2] (50 °C, solvent EtOH, read-out: Solubility at 50° C.) it was 2730 µg/mL (≈ 5.6 mM). Also, the solubility at 24 h in data set [2] (50 °C, solvent Ethyl formate, read-out: Solubility at 50° C.) amounted to 15300 µg/mL (≈ 31.4 mM); in data set [2] (50 °C, solvent IPA/water (4/1), read-out: Solubility at 50° C.), 8770 µg/mL (≈ 18 mM); in data set [2] (50 °C, solvent IPA, read-out: Solubility at 50° C.), 1370 µg/mL (≈ 2.81 mM); in data set [2] (50 °C, solvent IPAc, read-out: Solubility at 50° C.), 1330 µg/mL (≈ 2.73 mM); in data set [2] (50 °C, solvent Isobutyl acetate, read-out: Solubility at 50° C.), 580 µg/mL (≈ 1.19 mM); in data set [2] (50 °C, solvent MEK, read-out: Solubility at 50° C.), 3220 µg/mL (≈ 6.61 mM). Also, the solubility at 24 h in data set [2] (50 °C, solvent MIBK, read-out: Solubility at 50° C.) was 1120 µg/mL (≈ 2.3 mM); in data set [2] (50 °C, solvent MTBE, read-out: Solubility at 50° C.), 190 µg/mL (≈ 0.39 mM); in data set [2] (50 °C, solvent Toluene, read-out: Solubility at 50° C.) it was 820 µg/mL (≈ 1.68 mM); in data set [2] (50 °C, solvent n-BuOH, read-out: Solubility at 50° C.), 1650 µg/mL (≈ 3.38 mM); in data set [3] (25 °C, solvent 1-Propanol, stirred 24 h, HPLC, read-out: Solubility at 25° C.), 1160 µg/mL (≈ 2.38 mM); in data set [3] (25 °C, solvent DCM/MeOH (9/1), stirred 24 h, HPLC, read-out: Solubility at 25° C.) it was over 50000 µg/mL. Further, the solubility at 24 h was 880 µg/mL (≈ 1.81 mM) in data set [3] (25 °C, solvent IPAc, stirred 24 h, HPLC, read-out: Solubility at 25° C.); 450 µg/mL (≈ 0.923 mM) in data set [3] (25 °C, solvent Toluene, stirred 24 h, HPLC, read-out: Solubility at 25° C.); 2500 µg/mL (≈ 5.13 mM) in data set [3] (50 °C, solvent 1-Propanol, stirred 24 h, HPLC, read-out: Solubility at 50° C.); over 50000 µg/mL in data set [3] (50 °C, solvent Chloroform, stirred 24 h, HPLC, read-out: Solubility at 50° C.); over 50000 µg/mL in data set [3] (50 °C, solvent Dichloromethane, stirred 24 h, HPLC, read-out: Solubility at 50° C.); 2260 µg/mL (≈ 4.64 mM) in data set [3] (50 °C, solvent EtOAc, stirred 24 h, HPLC, read-out: Solubility at 50° C.). The solubility at 24 h in data set [3] (50 °C, solvent MeCN, stirred 24 h, HPLC, read-out: Solubility at 50° C.) was 8390 µg/mL (≈ 17.2 mM); in data set [3] (50 °C, solvent Methanol, stirred 24 h, HPLC, read-out: Solubility at 50° C.), 2050 µg/mL (≈ 4.21 mM); in data set [3] (DMF (50° C.), DCM, chloroform, DMSO, DCM/MeOH (9/1) at 25° C. and 50° C., read-out: completely soluble), over 50000 µg/mL. The “solubility (in words)” value in data set [2] (MTBE, toluene, IPAc, methanol, and IPA) was “sparingly soluble”; in data set [2] (water, heptane and hexane), “almost insoluble”. Besides, the solubility in data set [3] (DMSO, 25° C., slurry obtained after stirring the clear solution of 60 mg Form I in 1 mL DMSO, read-out: solubility of the saturated solution) came to 6130 µg/mL (≈ 12.6 mM).

Values taken from US12552792B2, “Solid forms of an FGFR inhibitor and processes for preparing the same” (Incyte Corporation, priority 2018, dated 2026).
